Measurements taken from patent US11725217B2, “Methods to enhance myocardial regeneration and/or repair” (Regents of the University of Minnesota, priority 2018, dated 2023).
Where a SMILES comes first, the peptide text is derived from it. The star is where a group is joined. Cbz = O=C(OCc1ccccc1)*; CH2F = FC*

Columns and labels:
[1] = tested on: isolated mouse neonatal cardiomyocytes; experiment: Proliferation of cultured neonatal (P1) cardiomyocytes (cell number, EdU incorporation, Ki67, FACS); assay type: cell-based; settings: for EdU+ cardiomyocytes: pan-caspase inhibition experiment, 48 h, SAG with/without pan-caspase inhibition; for Ki67+-Actinin+ cells: versus DMSO control
Method: Immunohistochemistry was performed on cryosections (10 μm thick) using standard procedures (Singh et al., 2012; Singh et al. 2007; Adhikari et al., 2011; Singh et al., 2010). Briefly, sections were rehydrated, permeabilized and blocked with 10% normal donkey serum (NDS), 0.1% Triton X-100 in PBS at room temperature and incubated overnight at 4° C. with primary antibodies: α-actinin (Abeam; 1:300), desmin (Novus biologicals; 1:300), Shh (Santa Cruz Biotechnology; 1:200), endomucin (Abeam; 1:100), SM22 (Abeam; 1:400), α-phospho-Histone H3 (Ser10) (Millipore; 1:100), Ki67 (Abcam; 1:200), PCNA (Santa Cruz Biotechnology; 1:100), Mef2a (Santa Cruz Biotechnology; 1:100), Smoothened (Abcam; 1:200), Nkx 2-5 (Santa Cruz Biotechnology; 1:100) and GFP (ThermoFisher Scientific; 1:300) sera. Sections were rinsed and incubated with combinations of secondary antibodies (1:400) including Alexa 488, Alexa 594, Cy3 and Cy5 (Jackson ImmunoResearch Laboratories). EdU staining was performed using the EdU labeling kit (Life Technologies)
Ventricular cardiomyocytes were isolated using previously published protocols (Collesi et al. 2008). Briefly, ventricles were dissected from P1 pups, minced in CBFHH (calcium and bicarbonate-free Hanks with Hepes) buffer. Subsequently, the minced ventricles were digested in CBFHH buffer containing 1.75 mg/ml of trypsin and 20 μg/ml of DNaseII (Sigma-Aldrich). Cells were preplated for 1 h (3 times) onto 100-mm primaria (Corning Life Sciences) dishes in culture medium containing 10% serum to remove fibroblasts. Unattached cardiomyocytes were plated at a desired density. […] After 12 h, the culture medium was changed and cells were subjected to the different treatments (SAG; 4 μg/mL and CyA; 5 μg/ml) and analyzed. For apoptotic pathway inhibition, neonatal cardiomyocytes were treated with cell permeable small molecule inhibitor (Z-VAD-FMK; R&D Systems) with or with SAG. For the EdU incorporation assay, cardiomyocytes were incubated with 20 μM EdU for 48 h and fixed using 4% PFA for 10 min at room temperature. […] For qPCR and FACS analysis, cells were harvested using trypsin and processed for further analysis. […] For the EdU incorporation assay, cardiomyocytes were incubated with 20 μM EdU for 48 h and fixed using 4% PFA for 10 min at room temperature.

[2] = tested on: isolated mouse neonatal cardiomyocytes; experiment: Live/dead assay in cultured neonatal cardiomyocytes; assay type: cell-based; settings: 48 h; n=3
Method: (§1) Ventricular cardiomyocytes were isolated using previously published protocols (Collesi et al. 2008). Briefly, ventricles were dissected from P1 pups, minced in CBFHH (calcium and bicarbonate-free Hanks with Hepes) buffer. Subsequently, the minced ventricles were digested in CBFHH buffer containing 1.75 mg/ml of trypsin and 20 μg/ml of DNaseII (Sigma-Aldrich). Cells were preplated for 1 h (3 times) onto 100-mm primaria (Corning Life Sciences) dishes in culture medium containing 10% serum to remove fibroblasts. Unattached cardiomyocytes were plated at a desired density. Using this protocol, we routinely obtained >85-90% cardiomyocytes (confirmed using immunohistochemical techniques and an alpha-actinin antibody). […] For apoptotic pathway inhibition, neonatal cardiomyocytes were treated with cell permeable small molecule inhibitor (Z-VAD-FMK; R&D Systems) with or with SAG. For the EdU incorporation assay, cardiomyocytes were incubated with 20 μM EdU for 48 h and fixed using 4% PFA for 10 min at room temperature. P7 cardiomyocytes were isolated using a similar protocol as that of the P1 cardiomyocyte isolation protocol with modifications including the perfusion based tissue digestion using collagenase type-2 enzyme solution. >95% rod-shaped binucleated cardiomyocytes were routinely obtained using this protocol. […]

HH signaling [3] = experiment: qPCR of HH pathway and cell cycle transcripts in neonatal cardiomyocytes; assay type: cell-based, mouse; settings: for Gli1 expression (qPCR) / Gli3 expression (qPCR) / Mycn transcripts (qPCR): isolated mouse neonatal cardiomyocytes
Method: (§2) RNA isolation and qPCR analysis from newt tissue was performed as previously described^5. For chamber based qPCR analysis, the regenerating heart including BA, AT and ventricle was harvested and rinsed in PBS to remove blood cells. Subsequently, the BA, AT and ventricle were collected from heart tissue (n=12) for further processing. RNA isolation from cultured cardiomyocytes was performed using a standard protocol as per the manufacturer's instructions. Total RNA was isolated using the miRVANA kit (Ambion) and cDNA was made using SuperScript […] kit (Invitrogen).
Briefly, ventricles were dissected from P1 pups, minced in CBFHH (calcium and bicarbonate-free Hanks with Hepes) buffer. […] Cells were preplated for 1 h (3 times) onto 100-mm primaria (Corning Life Sciences) dishes in culture medium containing 10% serum to remove fibroblasts. Unattached cardiomyocytes were plated at a desired density. […] For apoptotic pathway inhibition, neonatal cardiomyocytes were treated with cell permeable small molecule inhibitor (Z-VAD-FMK; R&D Systems) with or with SAG. For the EdU incorporation assay, cardiomyocytes were incubated with 20 μM EdU for 48 h and fixed using 4% PFA for 10 min at room temperature. […] For qPCR and FACS analysis, cells were harvested using trypsin and processed for further analysis. For the time-lapse microscopic experiments, isolated P7 mCherry+ cardiomyocytes were plated on glass-bottom petri dish coated with fibronectin. After 2 h of attachment, media was changed containing DMSO or SAG and the petri dish was placed in the environmental chamber for imaging. […] Briefly, the adult heart tissue was dissociated by perfusion of a collagenase type 2 enzyme solution. Isolated cardiomyocytes were cultured in 1% serum media in the presence of DMSO or SAG. For the EdU incorporation assay, cardiomyocytes were incubated with 20 μM EdU for 48 h and fixed using 4% PFA for 10 min at room temperature.

P7 cardiomyocytes = experiment: Proliferation of isolated P7 cardiomyocytes (EdU incorporation, time-lapse microscopy); assay type: cell-based, mouse
Method: Ventricular cardiomyocytes were isolated using previously published protocols (Collesi et al. 2008). Briefly, ventricles were dissected from P1 pups, minced in CBFHH (calcium and bicarbonate-free Hanks with Hepes) buffer. Subsequently, the minced ventricles were digested in CBFHH buffer containing 1.75 mg/ml of trypsin and 20 μg/ml of DNaseII (Sigma-Aldrich). Cells were preplated for 1 h (3 times) onto 100-mm primaria (Corning Life Sciences) dishes in culture medium containing 10% serum to remove fibroblasts. Unattached cardiomyocytes were plated at a desired density. Using this protocol, we routinely obtained >85-90% cardiomyocytes (confirmed using immunohistochemical techniques and an alpha-actinin antibody). […] For apoptotic pathway inhibition, neonatal cardiomyocytes were treated with cell permeable small molecule inhibitor (Z-VAD-FMK; R&D Systems) with or with SAG. For the EdU incorporation assay, cardiomyocytes were incubated with 20 μM EdU for 48 h and fixed using 4% PFA for 10 min at room temperature. P7 cardiomyocytes were isolated using a similar protocol as that of the P1 cardiomyocyte isolation protocol with modifications including the perfusion based tissue digestion using collagenase type-2 enzyme solution. >95% rod-shaped binucleated cardiomyocytes were routinely obtained using this protocol. For qPCR and FACS analysis, cells were harvested using trypsin and processed for further analysis. For the time-lapse microscopic experiments, isolated P7 mCherry+ cardiomyocytes were plated on glass-bottom petri dish coated with fibronectin. After 2 h of attachment, media was changed containing DMSO or SAG and the petri dish was placed in the environmental chamber for imaging. Adult cardiomyocyte isolation was performed (Mahmoud et al., 2013). Briefly, the adult heart tissue was dissociated by perfusion of a collagenase type 2 enzyme solution. Isolated cardiomyocytes were cultured in 1% serum media in the presence of DMSO or SAG. For the EdU incorporation assay, cardiomyocytes were incubated with 20 μM EdU for 48 h and fixed using 4% PFA for 10 min at room temperature.

HH signaling [4] = experiment: qPCR in P7 cardiomyocytes; assay type: cell-based, mouse; settings: P7-isolated cardiomyocytes
Method: as §2
Ventricular cardiomyocytes were isolated using previously published protocols (Collesi et al. 2008). Briefly, ventricles were dissected from P1 pups, minced in CBFHH (calcium and bicarbonate-free Hanks with Hepes) buffer. Subsequently, the minced ventricles were digested in CBFHH buffer containing 1.75 mg/ml of trypsin and 20 μg/ml of DNaseII (Sigma-Aldrich). Cells were preplated for 1 h (3 times) onto 100-mm primaria (Corning Life Sciences) dishes in culture medium containing 10% serum to remove fibroblasts. Unattached cardiomyocytes were plated at a desired density. Using this protocol, we routinely obtained >85-90% cardiomyocytes (confirmed using immunohistochemical techniques and an alpha-actinin antibody). […]

[5] = tested on: adult mouse cardiomyocytes; experiment: EdU incorporation in isolated adult cardiomyocytes; assay type: cell-based; settings: n=3, p<0.05
Method: as §1

day-60 hiPSC-CMs = experiment: Proliferation of day-60 hiPSC-derived cardiomyocytes (EdU, Ki67); assay type: cell-based, human; settings: 48 h, n=3, p<0.01
Method: The media was then changed with RPMI/B27 minus insulin and BMP4 and FGF from d1-d2. On d3, the medium was changed with RPMI/B27 minus insulin and IWP-4. The differentiated cells were maintained in RPMI/B27 with insulin media from d5-d60. […] Immunohistochemical analysis was performed as described previously.

regenerating newt heart = settings: continuous blockade of HH signals, CyA 2 μg/mL in aquarium water daily; n=8, p<0.05
Method: Adult red-spotted newts, Notophthalmus viridescens, were housed as described in Singh et al. (2012). For heart resection surgery, adult newts were anesthetized in 0.1% MS-222 solution for 10 min. Each newt was placed in a supine position under a stereomicroscope. The outer skin was wiped using 70% ethanol-chlorhexidine solution and the pericardial sac was opened to expose the heart. The apex of the ventricle was resected (˜25-30%) using iricdectomy scissors. Following resection, the blood flow was controlled by the formation of the blood clot. The resected heart was maneuvered carefully into the pericardial sac and sutured using 8.0 ethilon monofilament sutures. Following resection surgery, newts were allowed to recover in an isolated tank containing sulfmerazine antibiotic solution and later placed in their designated aquariums. The resected ventricular mass was measured using a Sartorius weighing balance. […] CyA-mediated inhibition of HH signaling was achieved by daily treatment of the resected newts at 2 μg/mL diluted in the aquarium water. At specified time periods, animals were sacrificed and tissues were collected for further processing. For EdU labelling, the resected newts were injected intraperitoneally (i.p.) with 100 μg/gm of EdU for a 7 day period prior to sacrifice and harvested for immunohistochemical analysis. […]

SMILES: COC(=O)C[C@H](NC(=O)[C@H](C)NC(=O)[C@@H](NC(=O)OCc1ccccc1)C(C)C)C(=O)CF [pan-caspase inhibitor, Z-VAD-FMK] (Cbz-Val-Ala-Asp(OMe)-CH2F)
- EdU+ cardiomyocytes ([1]; n=3): did not result in any change

SMILES: CNC1CCC(N(Cc2cccc(-c3ccncc3)c2)C(=O)c2sc3ccccc3c2Cl)CC1 (stereo not drawn) [SAG]
- increase in α-Actinin+-EdU+ cells compared to controls ([1]; SAG 4 μg/mL, EdU 48 h, n=4, p<0.05): 2.5 fold
- increased cardiomyocyte proliferation, FACS analysis of α-Actinin+-EdU+ population ([1]; n=3, p<0.05): 2.5 fold
- EdU+ cardiomyocytes ([1]; n=3): comparable increase
- cardiomyocyte proliferation (α-Actinin+-EdU+) ([1]; serum-free conditions, n=3, p<0.05): increased cardiomyocyte proliferation
- number of cultured neonatal cardiomyocytes ([1]; various concentrations): dose-dependent increase
- Ki67+-Actinin+ cells ([1]; n=3): increased number
- live/dead assay versus control [2]: No difference
- Ptc1, Ccnd2, Ccnd1 and Ccne1 transcripts (qPCR) (HH signaling [3]; HH signaling activation): induction of cell cycle kinetics
- Gli1 expression (qPCR) (HH signaling [3]): induced
- Gli3 expression (qPCR) (HH signaling [3]): reduced
- Mycn transcripts (qPCR) (HH signaling [3]): increased
- levels of caspase-3 transcripts (qPCR) (HH signaling [3]; versus control, data not shown): unaltered
- α-Actinin+-EdU+ cardiomyocytes (P7 cardiomyocytes; P7 cardiomyocytes, n=4): increased number
- increase in number of mono-, bi-, and multi-nucleated cardiomyocytes (P7 cardiomyocytes; P7 cardiomyocytes, n=4, p<0.05): ~3 fold
- dividing αMHC-mCherry+ P7 cardiomyocytes (time-lapse microscopy) (P7 cardiomyocytes; none found in DMSO control): multiple dividing
- expression of Cdkn1b (p27) (qPCR) (HH signaling [4]): reduced expression
- expression of Ptc1, Ccne1 and Ccnd2 (qPCR) (HH signaling [4]): increased expression
- α-Actinin+-EdU+ cardiomyocytes [5]: increased number
- increased α-Actinin+-EdU+ cardiomyocytes (day-60 hiPSC-CMs): 2 fold
- increased α-Actinin+-Ki67+ cardiomyocytes (day-60 hiPSC-CMs): ~3 fold

SMILES: c1ccc2c(Oc3nc(Nc4ccc(N5CCOCC5)cc4)c4ncn(C5CCCCC5)c4n3)cccc2c1 [Purmorphamine]
- cardiomyocyte proliferation (Actinin+-EdU+, immunohistochemical images) ([1]; isolated neonatal cardiomyocytes pulsed with EdU, FIG. 20): promotes cardiomyocyte proliferation

SMILES: CC1=C2C[C@H]3[C@@H](CC=C4C[C@@H](O)CC[C@@]43C)[C@@H]2CC[C@]12O[C@@H]1C[C@H](C)CN[C@H]1[C@H]2C [CyA, Cyclopamine]
- Ki67+-Actinin+ cells ([1]; n=3): not detected
- Gli1 expression (qPCR) (HH signaling [3]): reduced
- Gli3 expression (qPCR) (HH signaling [3]): increased
- Mycn transcripts (qPCR) (HH signaling [3]): reduced expression
- heart regeneration following injury (regenerating newt heart): complete ablation of heart regeneration and induction of scar formation
